According to patent publication US8614230B2, “Derivatives of the aminated hydroxyquinoline class for treating cancers” (Biopharmed, priority 2007, dated 2013):
Read-outs that look alike come from different tables or passages of the source.

Key:
U87/GFP cells [1] = assay: Antiproliferative effect on U87/GFP cells (flash cytometry); assay type: cell-based, human; settings: for inhibition at 10 µM / inhibition at 2 µM: read-out: Antiproliferative effect on U87/GFP cells: percentage inhibition
Description: For the U-87/GFP cells, the control of cell proliferation and migration in the presence of the compounds (I) of the invention is performed via a colorimetric method (MTS) and is performed according to known standard protocols. The methodologies implemented use flash cytometry (Trophos S.A., Marseilles, France). The flash cytometry technique involves fluorescence, which consists of irradiating a compound at a set wavelength and of recording the fluorescence emitted at another wavelength. This technique is performed with a flash cytometer and adapted for 96-well test plates. The excitation and emission wavelengths in the context of use of this fluorescence are located in the 485-495 nm range. The measured fluorescence expresses the amount of cells surviving after treatment with the compounds of the invention. The publications by Luby-Phelps K. et al., J. Histochemistry and Cytometry, 2003, 51, 271-274 and Modarai B. et al., Circulation, 2005, 111, 2645-2653 may be mentioned by way of reference for the above methods.
The cells of the U87/GFP lines are cultured in 96-well plates according to a standard methodology described by Bajetto et al., Neurochemistry International, 2006, 43, 31-38 in the presence of different concentrations of the compounds of the invention.
The cell proliferation is determined and quantified according to standard methods known to those skilled in the art. A 100% proliferation is attributed to the untreated cells and a percentage less than 100% is obtained when the same cells are treated with the compounds of the invention.
(§1) The cell proliferation and migration are determined by imaging using a flash cytometer (Trophos S.A., Marseilles, France), and the calculations are performed using the “Metamorph 4.6” imaging signal processing software (Molecular Devices, USA), the use of which, which is known in the field, makes it possible to determine the above two effects independently of each other.

KB cells = assay: Cytotoxicity / cell viability on KB cells (colony-forming assay); assay type: cell-based, human; settings: for Cytotoxicity on KB cells (percentage inhibition of cell viability): relative to reference without compound
Description: Cancerous KB cells are also considered, to determine the cell viability (or survival rate). This cell viability is determined according to the teaching of Nicholson K. M. et al., British Journal of Cancer, 1999, 81, 423-430.
KB cells are human carcinoma cell lines, KB-3-1. These cells are maintained in a culture medium, “Dulbecco's modified Eagle's medium” (DMEM—Sigma), which contains 0.11 g/l of sodium pyruvate and 4.5 g/l of glucose, supplemented with 10% (v/v) fetal calf serum, penicillin (32 μg/ml) and streptomycin (50 μg/ml). The cells are cultured as monolayers and are incubated at 37° C. in a humid atmosphere (95% air/5% CO2).
The preceding KB cells are then incubated in 6- or 96-well plates in the presence of the test compounds of the invention, dissolved in dimethyl sulfoxide (DMSO). The content of surviving cells is measured by the “colony-forming assay” test, in which the cells are redistributed at a density of 100 to 300 cells per well in 24-well plates, for a period of 8 days, and are then stained with Leishman's reagent (0.2% in methanol). The colonies of more than 50 cells are counted visually under a microscope, the survival rate being expressed on the colonies formed in the presence of the compounds of the invention relative to cell colonies not treated with said compounds. The determination of the IC50 values (concentration of compounds in the reaction medium for which 50% of the tested tumor cells survived the treatment) enables comparison of the efficacy of these compounds.

U87/GFP cells [2] = assay: Antimigratory effect on U87/GFP cells (scratch technique); assay type: cell-based, human
Description: The determination of the antimigratory activity of the compounds (I) of the invention on these same cell lines, cultured in MEM medium (Minimum Essential Medium) is performed via the “scratch” technique that consists in scratching a cell lawn using a micropipette cone. By comparison with these same cells not containing the compounds of the invention, the antimigratory effect is determined. A 100% migration is attributed to the untreated cells, whereas, as a function of the concentration of the compounds (I) of the invention, total stoppage of migration is determined by observation of the “scratch” remaining unfilled by the cell migration, by means of computer software.
as §1

mice = settings: comparison value for anticancer drugs; cited from earlier work
[3] = concentration giving 50% inhibition of proliferation
[4] = first value of two experiments performed in parallel, read-out: Cytotoxicity on KB cells (IC50)
[5] = second value of two experiments performed in parallel, read-out: Cytotoxicity on KB cells (IC50)
[6] = Homo sapiens, KB, first value of two experiments performed in parallel, read-out: Cytotoxicity on KB cells (IC50)
[7] = Homo sapiens, KB, second value of two experiments performed in parallel, read-out: Cytotoxicity on KB cells (IC50)
[8] = Homo sapiens, KB, approximate value given in the description, read-out: cytotoxic activity IC50 on KB cells
[9] = Homo sapiens, concentration giving 50% inhibition of proliferation
[10] = concentration giving 80% inhibition of migration

Row | SMILES | IC50 (KB cells; [4]) [nM] | IC50 (KB cells; [5]) [nM] | IC50 (KB cells; [6]) [nM] | IC50 (KB cells; [7]) [nM] | Cytotoxicity on KB cells (percentage inhibition of cell viability) (KB cells; at 1 μM) [% at 1 μM] | further results
1 | CC(C)(C)OC(=O)N(Cc1ccccc1)Cc1ccc(O)c2ncccc12 [I38] | 900 | 1100 | – | – | – | Antiproliferative effect on U87/GFP cells: percentage inhibition (U87/GFP cells [1]; at 5-10 μM): 50%; IC50 (U87/GFP cells [1]; [3]): 5000 to 10000 nM
2 | Oc1ccc(NCc2cccc3ccccc23)c2cccnc12 [I17, 5-(naphthalen-1-ylmethylamino)quinolin-8-ol] | – | – | 1000 | 950 | – | –
3 | CC(C)(C)OC(=O)N1CCCN(C(=O)OC(C)(C)C)CCN(Cc2ccc(O)c3ncccc23)CCCN(Cc2ccc(O)c3ncccc23)CC1 [I9, di-tert-butyl 4,8-bis((8-hydroxyquinolin-5-yl)methyl)-1,4,8,11-tetraazacyclotetradecane-1,11-dicarboxylate] | – | – | 398 | 639 | 77 | IC50 (KB cells; [8]): ~400 nM
4 | Oc1ccc(CN2CCCNCCNCCCNCC2)c2cccnc12 [I4, 5-((1,4,8,11-tetraazacyclotetradecane-1-yl)methyl)quinolin-8-ol] | – | – | – | – | 27 | –
5 | Oc1ccc(CNCc2cccc(C(F)(F)F)c2)c2cccnc12 [I35] | 200 | 220 | – | – | – | –
6 | Cn1nnc2c(C(N)=O)ncn2c1=O [Temodal ®, reference compound] | – | – | – | – | – | inhibition at 10 µM (U87/GFP cells [1]; Homo sapiens): 50%; IC50 (U87/GFP cells [1]; [9]): 10000 nM; inhibition at 10 µM (U87/GFP cells [2]; Homo sapiens, at 10 μM, read-out: Antimigratory effect on U87/GFP cells: percentage inhibition): 50%; IC50 (U87/GFP cells [2]; Homo sapiens, concentration giving 50% inhibition of migration): 10000 nM
7 | Cc1ccc(CNCc2ccc(O)c3ncccc23)cc1 [I16, 5-((4-methylbenzylamino)methyl)quinolin-8-ol] | – | – | 11000 | 10000 | – | inhibition at 2 µM (U87/GFP cells [1]; Homo sapiens): 80%; IC50 (U87/GFP cells [1]; concentration giving 80% inhibition of proliferation): 2000 nM; Cytotoxicity on KB cells (percentage inhibition of cell viability) (KB cells; at 2 μM): 50% at 2 μM; inhibition at 2 µM (U87/GFP cells [2]; Homo sapiens, at 2 μM, read-out: Antimigratory effect on U87/GFP cells: percentage inhibition): 80%; IC50 (U87/GFP cells [2]; [10]): 2000 nM
8 | Oc1ccc(CN2CCCNCCN(Cc3ccc(CN4CCCNCCNCCCNCC4)cc3)CCCNCC2)c2cccnc12 [I7, 5-((8-(4-((1,4,8,11-tetraazacyclotetradecane-1-yl)methyl)benzyl)-1,4,8,11-tetraazacyclotetradecan-1-yl)methyl)quinolin-8-ol] | – | – | 122 | 303 | 93 | Antiproliferative effect on U87/GFP cells: concentration at which activity is observed (U87/GFP cells [1]; percentage not given): 2 µM; IC50 (KB cells; [8]): ~100 nM
9 | CC(C)(C)OC(=O)N1CCCN(C(=O)OC(C)(C)C)CCN(C(=O)OC(C)(C)C)CCCNC(Cc2ccc(O)c3ncccc23)CC1 (stereo not shown) [I3, tri-tert-butyl 11-((8-hydroxyquinolin-5-yl)methyl)-1,4,8,12-tetraazacyclopentadecane-1,4,8-tricarboxylate] | – | – | – | – | 15 | –
10 | Oc1ccc(CN2CCN(Cc3ccc(O)c4ncccc34)CC2)c2cccnc12 [I8, 5,5′-(piperazine-1,4-diylbis (methylene))diquinolin-8-ol] | – | – | 43 | 32 | 94 | –
11 | Oc1ccc(CNCc2ccc(C(F)(F)F)cc2)c2cccnc12 [I34] | 10000 | 9000 | – | – | – | Antiproliferative effect on U87/GFP cells: percentage inhibition (U87/GFP cells [1]; at 5-10 μM): 50%; IC50 (U87/GFP cells [1]; [3]): 5000 to 10000 nM
12 | CC(=O)O[C@H]1C(=O)[C@@]2(C)[C@H]([C@H](OC(=O)c3ccccc3)[C@]3(O)C[C@H](OC(=O)[C@H](O)[C@@H](NC(=O)c4ccccc4)c4ccccc4)C(C)=C1C3(C)C)[C@]1(OC(C)=O)CO[C@@H]1C[C@@H]2O [Taxol] | – | – | – | – | – | LD50 (mice): about 10 mg/kg
13 | CC(NCc1ccc(O)c2ncccc12)c1ccccc1 (stereo not shown) [I33] | 1000 | 1100 | – | – | – | Antiproliferative effect on U87/GFP cells: percentage inhibition (U87/GFP cells [1]; at 0.5 μM): 50%; IC50 (U87/GFP cells [1]; [3]): 500 nM
14 | Oc1ccc(N(Cc2cccc3ccccc23)c2ccc(O)c3ncccc23)c2cccnc12 [I18, 5,5′-(naphthalen-1-ylmethylazanediyl)diquinolin-8-ol] | – | – | 5 | 4.5 | – | inhibition at 2 µM (U87/GFP cells [1]; Homo sapiens): 50%; IC50 (U87/GFP cells [1]; [9]): 2000 nM
15 | CC(C)(C)OC(=O)N(Cc1cccc(C(F)(F)F)c1)Cc1ccc(O)c2ncccc12 [I36] | 1000 | 1100 | – | – | – | Antiproliferative effect on U87/GFP cells: percentage inhibition (U87/GFP cells [1]; at 5-10 μM): 50%; IC50 (U87/GFP cells [1]; [3]): 5000 to 10000 nM
16 | Oc1ccc(CN(Cc2ccccc2)Cc2ccc(O)c3ncccc23)c2cccnc12 [I12] | 1.5 | 5 | – | – | 93 | Antiproliferative effect on U87/GFP cells: percentage inhibition (U87/GFP cells [1]; at 0.5 μM): 30%; IC50 (U87/GFP cells [1]; concentration giving 30% inhibition of proliferation): 500 nM; Antimigratory effect on U87/GFP cells: percentage inhibition (U87/GFP cells [2]; at 2 μM): 80%; IC50 (U87/GFP cells [2]; [10]): 2000 nM
17 | CC(C)(C)OC(=O)N(Cc1ccc(C(F)(F)F)cc1)Cc1ccc(O)c2ncccc12 [I37] | 8000 | 9000 | – | – | – | Antiproliferative effect on U87/GFP cells: percentage inhibition (U87/GFP cells [1]; at 5-10 μM): 50%; IC50 (U87/GFP cells [1]; [3]): 5000 to 10000 nM
18 | CC(C)(C)OC(=O)N1CCCN(Cc2ccc(O)c3ncccc23)CCCN(C(=O)OC(C)(C)C)CCN(C(=O)OC(C)(C)C)CCC1 [I2, tri-tert-butyl 12-((8-hydroxyquinolin-5-yl)methyl)-1,4,8,12-tetraazacyclopentadecane-1,4,8-tricarboxylate] | – | – | – | – | 28 | –
19 | Oc1ccc(CNCc2ccccc2)c2cccnc12 [I13, 5-((benzylamino)methyl)quinolin-8-ol] | – | – | > 1000 | 1300 | 90 | inhibition at 10 µM (U87/GFP cells [1]; Homo sapiens): 50%; IC50 (U87/GFP cells [1]; [9]): 10000 nM
